According to patent US12043602B2, “Fendiline derivatives” (The Board of Regents of the University of Texas System, priority 2019, dated 2024):
pEC50: −log10 of the molar value. Where two headings read alike, the source gives them in different places.

Columns and labels:
[1] = target: mGFP-K-RASG12V (Homo sapiens (Human), UniProt P01116, G12V); assay: K-Ras mislocalization assay (confocal microscopy, Manders coefficient); type: cell-based; design: key to Emax: Manders coefficient: fraction of mCherry-CAAX co-localizing with GFP-K-Ras; conditions: MDCK cells; for IC50: 48 h treatment, read-out: IC50 (μM), KRASG12V mislocalization; for Emax: maximal effect, Manders coefficient; for Emax / pEC50: 48 h; for pEC50: batch 4 compounds, title calls it IC50, read-out: EC50
How it was run: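 Readout is the Manders coefficient: share of mCherry-CAAX overlapping mGFP-K-RASG12V in confocal images, proportional to K-Ras mislocalization. Stable MDCK co-expressing lines were exposed 48 h to various drug concentrations or 0.1% DMSO vehicle, then paraformaldehyde-fixed.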

[2] = tested on: MDCK cells co-expressing GFP-K-RASG12V and mCherry-CAAX
[3] = target: HRAS (Homo sapiens (Human), UniProt P01112); conditions: background statement; cited from earlier work
[4] = target: NRAS (Homo sapiens (Human), UniProt P01111); conditions: background statement; cited from earlier work
[5] = tested on: MiaPaCa-2 (Mut) pancreatic tumor cells; assay: CyQUANT proliferation assay; type: cell-based; design: key to IC50 proliferation MiaPaCa-2 (Mut): NE—Not efficacious; conditions: 72 h
Method: (§1) Madine Darby Canine Kidney epithelial cells (MDCK) stably co-expressing mGFP-tagged full length oncogenic mutant K-Ras (GFP—K-RASG12V) or mGFP-LactC2 (peptide probe for phosphatidylserine) and mCherry-tagged to the amino acids 179-189 of H-RasC181S, C184S (mCherry-CAAX, localizes primarily to endomembranes) were grown in DMEM-high glucose/sodium pyruvate/10% FBS. The medium was supplemented with 1× Penicillin/Streptomycin for fluorescence microscopy assays, to avoid any microbial contamination from the test compounds added. KLE and Hec50 cells were maintained in DMEM-F-12 medium supplemented with 10% FBS. Hec-1A and Hec-1B cells were grown in McCoy's 5a medium supplemented with 10% FBS. ESS-1 cells were grown in RPMI 1640 medium supplemented with 20% FBS. MPanc96 cells were grown in DMEM supplemented with 10% FBS, MiaPaCa-2 cells in DMEM supplemented with 10% FBS and 2.5% horse serum and all other cell lines were grown in RPMI 1640 supplemented with 10% FBS. All cancer cell media were supplemented with ×Penicillin/Streptomycin. All cell lines were grown at 37° C. with 5% CO2.
(§2) Cells were seeded in 96-well plates. After 24 h, fresh growth medium supplemented with 0.1% vehicle (DMSO), or various concentrations of drugs was added and cells were grown for 72 h. Cell numbers were quantified using the CyQUANT® Cell Proliferation Assay Kit (Molecular Probes, Life Technologies), according to the manufacturer's protocol. Fluorescence measurement was used as a measure of live cell number.

[6] = tested on: MOH (Mut) pancreatic tumor cells; assay: CyQUANT proliferation assay; type: cell-based; design: key to IC50 proliferation MOH (Mut): NE—Not efficacious; conditions: 72 h
Method: as §1, §2

[7] = tested on: MPanc96 (Mut) pancreatic tumor cells; assay: CyQUANT proliferation assay; type: cell-based; design: key to IC50 proliferation MPanc96 (Mut): NE—Not efficacious; conditions: 72 h
Method: as §1, §2

[8] = tested on: MDCK cells co-expressing GFP-K-RASG12V and mCherry-CAAX; assay: Cytotoxicity in mislocalization screen (death of all cells in well); conditions: drug caused death of all cells in well at 30 μM
[9] = tested on: NCI H1975 (WT) lung tumor cells; assay: CyQUANT proliferation assay; type: cell-based; design: key to IC50 proliferation NCI H1975 (WT): NE—Not efficacious; conditions: 72 h
Method: as §1, §2

[10] = tested on: NCI H522 (WT) lung tumor cells; assay: CyQUANT proliferation assay; type: cell-based; design: key to IC50 proliferation NCI H522 (WT): NE—Not efficacious; conditions: 72 h
Method: as §1, §2

[11] = tested on: ESS-1 (WT) endometrial tumor cells; assay: CyQUANT proliferation assay; type: cell-based; design: key: NE—Not efficacious; conditions: 72 h
Method: as §1, §2

[12] = tested on: Ishikawa (WT) endometrial tumor cells; assay: CyQUANT proliferation assay; type: cell-based; design: key to IC50 proliferation Ishikawa (WT): NE—Not efficacious; conditions: 72 h
Method: as §1, §2

[13] = tested on: MiaPaCa-2 tumors; assay: In vivo tumor growth assay (xenograft); design: species or system nu/nu mice; conditions: MiaPaCa2 xenografts in nude mice
Method: In Vivo Tumor Growth Assay. All animal studies were performed under an Institutional Animal Care and Use Committee (IACUC) approved animal protocol (AWC-15-0101), in accordance with the National Institutes of Health Guide for the Care and Use of Laboratory Animals. Early passage MiaPaCa-2 cells were harvested, and 2×10^6 cells were implanted into the right flanks of female nu/nu mice. The animals were randomized into control and treated groups (10 mice per group). Tumor volume (V) was measured with an external caliper every 3-4 days and it was calculated as V=0.52 (length×width2). Compound treatment was initiated when the tumor sizes reached 100 mm3. Compounds (12.5 mg/kg) were injected daily intraperitoneally for 5 days, with 2 days of no treatment in between. All treatments were continued until any of the subcutaneous tumors reached 1500 mm3 in volume, when all the animals were sacrificed, and the tumors removed.
Early passage BxPC-3 or MIAPaCa-2 cells were harvested, and 2-3X106 cells were implanted into the right flanks of nu/nu mice. The animals were randomized into control and treated groups (10 mice per group). Tumor volume (V) was measured with an external caliper every 3-4 days and it was calculated as V=0.52 (length×width2). Drug treatment was initiated 4 days after tumor implantation. Drugs were injected daily intraperitoneally (at doses indicated) for 5 days, with 2 days of no treatment in between. All treatments were continued until any of the subcutaneous tumors reached 1500 mm3 in volume or for 6 weeks (whichever was first), when all the animals were sacrificed and the tumors removed.
Next the effect of the selected PMLIs on the growth of oncogenic KRAS expressing MiaPaCa-2 cells implanted subcutaneously into the flanks of nu/nu immunosuppressed mice was determined. […] The animals were randomized into control and PMLI-treated groups (10 mice per group). Treatment was initiated when the tumors reached a mean volume of 100 mm^3. PMLIs were tested at 12.5, 7.5, 5, 2.5 and 1 mg/kg doses, administered once daily intraperitoneally for 5 days, with 2 days of no treatment in between for the duration of the experiment. […] There was no observed toxicity detected in any of the compound-treated groups during the experiment and, accordingly, there was no significant difference in the body weight of the animals in the different groups.

[14] = tested on: KLE (WT) endometrial tumor cells; assay: CyQUANT proliferation assay; type: cell-based; design: key: NE—Not efficacious; conditions: 72 h
Method: as §1, §2

[15] = tested on: BxPC-3 (WT) pancreatic tumor cells; assay: CyQUANT proliferation assay; type: cell-based; design: key to IC50 proliferation BxPC-3 (WT): NE—Not efficacious; conditions: 72 h
Method: as §1, §2

IC50 [1] [µM]	Emax [1]	SMILES	Cytotoxic at 30 μM [8]	further results
5.59	0.811	C[C@@H](NCCC(c1ccccc1)c1ccccc1)c1ccccc1 [AVA08, R-Fendiline, reference compound]	–	Cytotoxic at 30 μM [2]: Yes; effect on the PM localization of HRAS [3]: no effect; effect on the PM localization of NRAS [4]: no effect
0.29	0.891	COc1ccc([C@@H](C)N(CC=C(c2ccccc2)c2ccccc2)C(=O)NC(C)(C)C)cc1 [NY0428, (R)-3-tert-butyl-1-(3,3-diphenylallyl)-1-(1-(4-methoxyphenyl)ethyl)urea]	No	IC50 proliferation MiaPaCa-2 (Mut) [5]: NE; IC50 proliferation MOH (Mut) [6]: NE; IC50 proliferation MPanc96 (Mut) [7]: NE
0.91	–	CN1CCN(CCN(CC=C(c2ccccc2)c2ccccc2)C2(c3ccccc3)CC2)CC1 [NY0443, N-(3,3-diphenylallyl)-N-(2-(4-methylpiperazin-1-yl)ethyl)-1-phenylcyclopropanamine]	Yes	IC50 proliferation NCI H1975 (WT) [9]: NE; IC50 proliferation NCI H522 (WT) [10]: NE; IC50 proliferation ESS-1 (WT) [11]: NE; IC50 proliferation Ishikawa (WT) [12]: NE
0.73	0.732	C(CN(CCN1CCCC1)C1(c2ccccc2)CC1)=C(c1ccccc1)c1ccccc1 [NY0444, N-(3,3-diphenylallyl)-1-phenyl-N-(2-(pyrrolidin-1-yl)ethyl)cyclopropanamine]	Yes	IC50 proliferation ESS-1 (WT) [11]: NE; IC50 proliferation Ishikawa (WT) [12]: NE
–	0.808	C[C@H](c1ccc(F)cc1)N(CC=C(c1ccccc1)c1ccccc1)CCN1CCCC1 [NY0506, (R)-N-(1-(4-fluorophenyl)ethyl)-3,3-diphenyl-N-(2-(pyrrolidin-1-yl)ethyl)prop-2-en-1-amine]	Yes	pEC50 [1]: 6.28; minimum effective dose on tumor growth relative to fendiline [13]: more potent than fendiline
0.2	0.835	C(CNC1(c2ccccc2)CC1)=C(c1ccccc1)c1ccccc1 [NY040402, N-(3,3-diphenylallyl)-1-phenylcyclopropanamine]	No	IC50 proliferation BxPC-3 (WT) [15]: NE; IC50 proliferation MiaPaCa-2 (Mut) [5]: NE; IC50 proliferation MOH (Mut) [6]: NE; IC50 proliferation MPanc96 (Mut) [7]: NE
0.05	0.852	COc1ccc(-c2cc(C(=O)N(CCN3CCCC3)[C@H](C)c3ccc(F)cc3)no2)cc1 [PW323, (R)-N-(1-(4-Fluorophenyl)ethyl)-5-(4-methoxyphenyl)-N-(2-(pyrrolidin-1-yl)ethyl)isoxazole-3-carboxamide]	Yes	minimum effective dose on tumor growth relative to fendiline [13]: more potent than fendiline
–	0.414	C[C@H](c1ccc(F)cc1)N(CC=C(c1ccccc1)c1ccccc1)CCNc1cc(-c2ccc(F)cc2)n[nH]1 [PW2100, (R)-N^1-(3,3-diphenylallyl)-N^2-(3-(4-fluorophenyl)-1H-pyrazol-5-yl)-N^1-(1-(4-fluorophenyl)ethyl)ethane-1,2-diamine]	No	–

SMILES	IC50 [1] [µM]	Emax [1]	Cytotoxic at 30 μM [8]	further results
COc1ccc([C@@H](C)N(CC=C(c2ccccc2)c2ccccc2)CCN2CC2)cc1 [NY0438, (R)-N-(2-(aziridin-1-yl)ethyl)-N-(1-(4-methoxyphenyl)ethyl)-3,3-diphenylprop-2-en-1-amine]	5.1	0.754	–	Cytotoxic at 30 μM [2]: No
C[C@H](c1ccccc1)N(CC=C(c1ccccc1)c1ccccc1)CCN1CCN(C)CC1 [NY0513, (R)-N-(2-(4-methylpiperazin-1-yl)ethyl)-3,3-diphenyl-N-(1-phenylethyl)prop-2-en-1-amine]	0.6	0.786	Yes	pEC50 [1]: 6.19; Emax ([1]; listed as 15d): 0.79 ± 0.01; IC50 proliferation KLE (WT) [14]: NE
COc1ccc(/C(=C\CN(CCN2CCCC2)[C@H](C)c2ccc(F)cc2)c2ccccc2)cc1 [PW460, (R,Z)-N-(1-(4-fluorophenyl)ethyl)-3-(4-methoxyphenyl)-3-phenyl-N-(2-(pyrrolidin-1-yl)ethyl)prop-2-en-1-amine]	2.02	0.801	Yes at 10 uM	–
